# From PubChem BioAssay AID2423 (Broad Institute, 2010)
# Inconclusive results are not listed. Active and inactive are the calls of the source. The rule behind the calls is not given here.
# Test system: C. albicans CaCi-8 + fluconazole, Alamar Blue growth, 48 h
# Assay: resistant C. albicans growth inhibition with fluconazole, dose response, CaCi-8 strain, Alamar Blue fluorescence (AID 2423)
row,SMILES,EC50
1,O=C(N/N=C\c1cc(Cl)ccc1O)c1ccc(S(=O)(=O)N2CCCCC2)cc1,0.926 µM
2,Oc1ccc(CN2CCC(Cc3ccccc3)CC2)c2cccnc12,1.34 µM
3,Cc1ccc(NC2=CC(=O)C(=O)c3ccccc32)cc1,0.451 µM
4,CC(C)(C)c1ccc(C(=O)CC(=O)c2cc(Cl)ccc2O)cc1,4.77 µM
5,Cc1cc(OCC(=O)NNC(=S)NC(=O)c2cccs2)ccc1Cl,1.66 µM
6,CCOc1ccc(C(Nc2cccnc2)c2cc(Cl)c3cccnc3c2O)cc1 (stereo unspecified),0.93 µM
7,CCN(CC)c1nc(-c2ccccn2)nc(-c2ccccc2)c1C#N,4.19 µM
8,CCOC(=O)C1CCN(Cc2ccc(O)c3ncccc23)CC1,> 15 µM (inactive)
9,Oc1cccc2ccc(Nc3ccccn3)nc12,2.35 µM
10,Cc1ccccc1-c1ccnc2[nH]n(-c3ccccc3)c(=O)c12,14.5 µM
11,CC(=O)c1c(C)[nH]c(C(=O)Nc2ccc(C)c(C)c2)c1C,3.45 µM
12,CC(=O)NC1CCCN(O)C(=O)/C=C(\C)CCOC(=O)C(NC(C)=O)CCCN(O)C(=O)/C=C(\C)CCOC(=O)C(NC(C)=O)CCCN(O)C(=O)/C=C(\C)CCOC1=O (stereo unspecified),0.783 µM
13,CCOC(=O)c1cc([N+](=O)[O-])c([N+](=O)[O-])cc1NC(C)=O,0.692 µM
14,O=C(COc1ccc(F)cc1)Nc1nc(-c2ccccn2)cs1,2.23 µM
15,CN(C(=O)CSc1nnc(-c2ccco2)o1)C1CCCCC1,13.2 µM
16,CC(C)CCN1C(=O)c2ccc(C(=O)Nc3ccc(Br)cc3C(=O)O)cc2C1=O,1.27 µM
17,Cc1c(CCOC(=O)C23CC4(C)CC(C)(CC(C)(C4)C2)C3)sc[n+]1CC(=O)c1ccccc1,> 15 µM (inactive)
18,O=C(O)CSc1nc(-c2ccc(Cl)cc2)nc2c1oc1ccccc12,1.51 µM
19,Cc1ccc(/C=C/C(=O)c2ccccc(=O)c2O)c(C)c1,1.26 µM

row,SMILES,EC50
1,CN(C)S(=O)(=O)Oc1cccc(C(=O)Nc2ccc(Cl)c(Cl)c2)c1,0.711 µM
2,O=Nc1c(-c2cccc([N+](=O)[O-])c2)nc2ncccn12,0.828 µM
3,NC(=O)CC12CC3CC(C1)CC(CC(N)=O)(C3)C2,> 16 µM (inactive)
4,Nc1ccc(C(=O)N/N=C\c2ccc(OC(=O)c3ccccc3Cl)cc2)cc1,0.431 µM
5,COc1cc(OC)cc(C(=O)Oc2c(CN3CCOCC3)cc(Cl)c3cccnc23)c1,2.62 µM
6,CCN(c1ccccc1)S(=O)(=O)c1ccc(Cl)c(NC(=O)CN2C(=O)NC3(CCCC3)C2=O)c1,> 15 µM (inactive)
7,Oc1c(Br)cc(Br)cc1/C=N/Nc1ccc(Cl)nn1,0.237 µM
8,Brc1ccc(CSc2nnc(-c3cnccn3)n2Cc2ccco2)cc1,2.01 µM
9,COc1ccc(C(=O)NNC(=S)NC(=O)c2ccc(Cl)cc2)cc1,0.928 µM
10,CCNC(=S)NNC(=O)c1cc(-c2ccccc2C)nc2ccccc12,1.41 µM
11,CC(=O)Nc1ccc(NC(=O)CCCN2C(=O)c3ccccc3C2=O)cc1,> 15 µM (inactive)
12,Cc1ccc(C2C3CSCC=C3C(C#N)=C(N)C2(C#N)C#N)cc1 (stereo unspecified),16.3 µM
13,O=Nc1c(O)n(Cc2cccc(Cl)c2)c2ccccc12,1.2 µM
14,CCN(CC)S(=O)(=O)c1ccc(N/N=C(\C)c2ccc(OC)cc2O)nc1,> 16 µM (inactive)
15,Oc1[nH]c2c(Cl)cc(Cl)cc2c1N=NC(=S)NCC1CCCO1 (stereo unspecified),3.58 µM
16,CCNC(=S)NNC(=O)c1cc(-c2ccc(OC)cc2)nc2ccccc12,4.38 µM
17,CCCCOc1ccc(C(=O)NNC(=S)NC(=O)CC)cc1,0.858 µM
18,CC(C)CCNCC(=O)NC(c1ccccc1)c1ccccc1,> 16 µM (inactive)
19,COc1ccc(OC)c(-n2c(CN3CCC(C(N)=O)CC3)nc3ccccc3c2=O)c1,> 15 µM (inactive)

row,SMILES,EC50
1,O=C1CCCN1CCCN=c1c([N+](=O)[O-])nn(-c2ccc(Cl)cc2)n1O,6.12 µM
2,C=CCc1cccc(/C=N/NC(=O)CNc2cccc3ccccc23)c1O,3.11 µM
3,CCOc1cc(N2CCOCC2)c(OCC)cc1NC(=O)COc1cccc2cccnc12,> 15 µM (inactive)
4,Cc1noc(/C=C/c2ccccn2)c1[N+](=O)[O-],1.9 µM
5,Cc1cc(C(=O)Nc2nc(-c3ccccn3)cs2)ccc1[N+](=O)[O-],0.96 µM
6,O=C(Cc1cccs1)Nc1cccc(-c2nc3ccccc3[nH]2)c1,0.798 µM
7,O=C(c1ccco1)N1CCN(c2ncnc3c(-c4ccccc4)nsc23)CC1,1.26 µM
8,C=CCn1c(COc2ccc(F)cc2)nnc1SCC(=O)Nc1cccc(S(N)(=O)=O)c1,> 16 µM (inactive)
9,CCOC(=O)Cc1csc(NC(=O)CSc2nc3sc(C(=O)O)c(C)c3c(=O)[nH]2)n1,> 16 µM (inactive)
10,Cc1ccc2nc(N3C(=O)C(O)=C(C(=O)c4ccco4)C3c3ccc(C)o3)sc2c1 (stereo unspecified),0.131 µM
11,COc1cc2c(O)c3c(c(-c4ccc5c(c4)OCO5)c2cc1OC)C(=O)OC3,2.21 µM
12,O=C1CN2C(=Nc3ccc(Cl)cc3C2c2ccccc2)CN1 (stereo unspecified),3.3 µM
13,CCOc1ccc(/C=N/NC(=O)c2[nH]ncc2Br)c(O)c1,1.85 µM
14,COc1ccc(C(c2c(O)ccc3ccccc23)N2CCOCC2)c(OC)c1 (stereo unspecified),2.85 µM
15,O=C(N/N=C/c1ccncc1)c1cc2ccccc2cc1O,> 15 µM (inactive)
16,N#C/C(=N\Nc1cccc([N+](=O)[O-])c1)C(=O)c1ccc(Br)cc1,5.56 µM
17,O=C(NNC(=O)c1cc2ccccc2cc1O)NC1CCCCC1,13.6 µM
18,Oc1c(Cl)cc(Cl)c(Cl)c1Cc1c(O)c(Cl)cc(Cl)c1Cl,1.73 µM
